In patent EP0934933A1, “Phthalazinones” (Byk Gulden Lomberg Chemische Fabrik GmbH, priority 1998, dated 1999):

Test system: PDE4
Assay: Inhibition of PDE 4 activity (method of Bauer and Schwabe, adapted to microtitre plates)
Format: biochemical
Details: measured as -logIC50 (mol/l)

## CCOc1ccc(-c2nn(CC(=O)c3ccccc3)c(=O)c3ccccc23)cc1OCC [Compound 2, 2-(2-Phenyl-2-oxoethyl)-4-(3,4-diethoxyphenyl)-2H-phthalazin-1-one]
  -logIC50: 7.01

## CCOc1cc(-c2nn(CC(=O)c3ccccc3)c(=O)c3ccccc23)ccc1OC [Compound 3, 4-(3-Ethoxy-4-methoxyphenyl)-2-(2-phenyl-2-oxoethyl)-2H-phthalazin-1-one]
  -logIC50: 7.28

## COc1ccc(-c2nn(CC(=O)c3ccccc3)c(=O)c3ccccc23)cc1OC1CCCC1 [Compound 4, 4-(3-Cyclopentyloxy-4-methoxyphenyl)-2-(2-phenyl-2-oxoethyl)-2H-phthalazin-1-one]
  -logIC50: 7.09

## COc1ccc(-c2nn(CC(=O)c3ccccc3)c(=O)c3ccccc23)cc1OC(F)F [Compound 5, 4-(3-Difluoromethoxy-4-methoxyphenyl)-2-(2-phenyl-2-oxoethyl)-2H-phthalazin-1-one]
  -logIC50: 7.14

## COc1ccc(-c2nn(CC(=O)c3ccccc3OC)c(=O)c3ccccc23)cc1OC [Compound 7, 4-(3,4-Dimethoxyphenyl)-2-[2-(2-methoxyphenyl)-2-oxoethyl]-2H-phthalazin-1-one]
  -logIC50: 7.52

## COc1ccc(OC)c(C(=O)Cn2nc(-c3ccc(OC)c(OC)c3)c3ccccc3c2=O)c1 [Compound 10, 4-(3,4-Dimethoxyphenyl)-2-[2-(2,5-dimethoxyphenyl)-2-oxoethyl]-2H-phthalazin-1-one]
  -logIC50: 6.99

## COc1ccc(-c2nn(CC(=O)c3cc(Cl)c(N)c(Cl)c3)c(=O)c3ccccc23)cc1OC [Compound 12, 4-(3,4-Dimethoxyphenyl)-2-[2-(4-amino-3,5-dichlorophenyl)-2-oxoethyl]-2H-phthalazin-1-one]
  -logIC50: 6.85
